Patent US9968649B2, “Vasopressin formulations for use in treatment of hypotension” (Par Pharmaceutical, Inc., priority 2015, dated 2018)

Columns and labels:
[1] = Investigation of pH: vasopressin stability by HPLC after 60° C. for one week (Example 2); type: physicochemical; settings: 10 mM citrate buffer in isotonic saline
Description: To determine a possible pH for a vasopressin formulation with good shelf life, vasopressin formulations were prepared in 10 mM citrate buffer diluted in isotonic saline across a range of pH. Stability was assessed via HPLC as in EXAMPLE 1 after incubation of the formulations at 60° C. for one week. FIG. 9 illustrates the results of the experiment. […] At pH 3.5, the percent label claim (% LC) of vasopressin was highest, and the proportion of total impurities was lowest.

[2] = system: septic shock and post-cardiotomy vasodilatory shock; settings: seven studies in septic shock and eight studies in post-cardiotomy vasodilatory shock; cited from earlier work
[3] = system: Chinese hamster ovary (CHO) cell; experiment: In vitro Chinese hamster ovary (CHO) cell chromosome aberration test; type: cell-based

## NC(=O)CC[C@@H]1NC(=O)[C@H](Cc2ccccc2)NC(=O)[C@H](Cc2ccc(O)cc2)NC(=O)[C@@H](N)CSSC[C@@H](C(=O)N2CCC[C@H]2C(=O)N[C@@H](CCCN=C(N)N)C(=O)NCC(N)=O)NC(=O)[C@H](CC(N)=O)NC1=O [Vasopressin, Cyclo (1-6) L-Cysteinyl-L-Tyrosyl-L-Phenylalanyl-L-Glutaminyl-L-Asparaginyl-L-Cysteinyl-L-Prolyl-L-Arginyl-L-Glycinamide]
[1]
  pH at which the greatest level of stability was observed (highest % LC, lowest total impurities): 3.5
[2]
  systolic and mean blood pressure following administration: Increases in systolic and mean blood pressure
[3]
  CHO cell chromosome aberration test result: negative
